Our source for the EC50, Emax and Ratio EC50 values is ChEMBL document CHEMBL5260859, “Discovery and structure-activity relationship study of 2-piperazinyl-benzothiazole derivatives as potent and selective PPARδ agonists” (Bioorg Med Chem, 2023).

Assay [1] concerns the target T1, Peroxisome proliferator-activated receptor delta (Homo sapiens, UniProt Q03181).
T1 sequence (Q03181 whole entry): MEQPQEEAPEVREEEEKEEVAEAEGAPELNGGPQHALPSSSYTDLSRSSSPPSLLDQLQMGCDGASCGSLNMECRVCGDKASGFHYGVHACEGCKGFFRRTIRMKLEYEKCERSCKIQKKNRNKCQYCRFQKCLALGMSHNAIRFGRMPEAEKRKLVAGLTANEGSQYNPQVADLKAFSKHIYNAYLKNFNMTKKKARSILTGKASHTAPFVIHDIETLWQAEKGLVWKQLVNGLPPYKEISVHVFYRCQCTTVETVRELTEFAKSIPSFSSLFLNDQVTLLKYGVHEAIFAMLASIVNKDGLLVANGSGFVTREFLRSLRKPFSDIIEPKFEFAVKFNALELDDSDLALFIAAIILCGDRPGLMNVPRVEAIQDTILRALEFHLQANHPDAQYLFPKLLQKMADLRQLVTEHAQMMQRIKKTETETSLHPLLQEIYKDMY
Briefly: Agonist activity at Gal4-fused human PPAR-delta ligand binding domain expressed in CHO-K1 cells assessed as receptor transactivation incubated for 24 to 48 hrs by luciferase reporter gene assay. The class given is cell-based.

Assay [2] addresses T2, Peroxisome proliferator-activated receptor alpha (Homo sapiens) (UniProt Q07869).
T2 sequence (whole entry): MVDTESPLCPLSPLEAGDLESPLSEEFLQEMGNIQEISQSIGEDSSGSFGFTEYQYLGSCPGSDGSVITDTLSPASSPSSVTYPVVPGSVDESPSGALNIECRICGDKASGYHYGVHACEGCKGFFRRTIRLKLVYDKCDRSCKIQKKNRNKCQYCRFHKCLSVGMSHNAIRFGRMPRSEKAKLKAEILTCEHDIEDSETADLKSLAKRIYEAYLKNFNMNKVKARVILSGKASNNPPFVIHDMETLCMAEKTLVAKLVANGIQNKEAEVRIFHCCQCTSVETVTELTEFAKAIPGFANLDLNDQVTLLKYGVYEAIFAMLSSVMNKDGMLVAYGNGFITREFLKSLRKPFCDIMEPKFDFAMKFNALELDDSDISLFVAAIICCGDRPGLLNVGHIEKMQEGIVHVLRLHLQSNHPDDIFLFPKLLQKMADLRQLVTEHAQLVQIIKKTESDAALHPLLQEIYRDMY
Briefly: Agonist activity at Gal4-fused human PPAR-alpha ligand binding domain expressed in CHO-K1 cells assessed as receptor transactivation incubated for 24 to 48 hrs by luciferase reporter gene assay relative to control. The note with it: time lower 24.0 hrs, time upper […]. The format is cell-based. (In general: A reporter such as luciferase makes a cellular process visible.)

For assay [3], the species on record is Homo sapiens. Briefly: Selectivity ratio of EC50 for agonist activity at Gal4-fused human PPAR-alpha ligand binding domain expressed in CHO-K1 cells to EC50 for agonist activity at Gal4-fused human PPAR-delta ligand binding domain expressed in CHO-K1 cells. The format is cell-based.
Assay [4] concerns the target T3, Peroxisome proliferator-activated receptor gamma (Homo sapiens, UniProt P37231).
T3 sequence (P37231 whole entry): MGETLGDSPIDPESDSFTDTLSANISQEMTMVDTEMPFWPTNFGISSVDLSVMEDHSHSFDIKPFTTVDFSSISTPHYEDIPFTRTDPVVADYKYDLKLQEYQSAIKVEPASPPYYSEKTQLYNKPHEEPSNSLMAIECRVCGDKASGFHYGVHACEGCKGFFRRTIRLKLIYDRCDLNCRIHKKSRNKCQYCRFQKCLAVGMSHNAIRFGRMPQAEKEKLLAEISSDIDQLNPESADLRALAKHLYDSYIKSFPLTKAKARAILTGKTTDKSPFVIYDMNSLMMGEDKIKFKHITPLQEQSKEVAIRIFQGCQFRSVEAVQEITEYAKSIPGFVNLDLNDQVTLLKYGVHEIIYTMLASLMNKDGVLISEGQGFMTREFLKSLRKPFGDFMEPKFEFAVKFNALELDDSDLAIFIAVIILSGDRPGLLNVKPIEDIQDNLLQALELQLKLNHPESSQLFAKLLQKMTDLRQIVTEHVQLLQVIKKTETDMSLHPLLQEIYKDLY
The class given is cell-based, CHO-K1.

The target of assay [5] is T4, Peroxisome proliferator-activated receptor alpha (Mus musculus, UniProt P23204).
T4 sequence (P23204 whole entry): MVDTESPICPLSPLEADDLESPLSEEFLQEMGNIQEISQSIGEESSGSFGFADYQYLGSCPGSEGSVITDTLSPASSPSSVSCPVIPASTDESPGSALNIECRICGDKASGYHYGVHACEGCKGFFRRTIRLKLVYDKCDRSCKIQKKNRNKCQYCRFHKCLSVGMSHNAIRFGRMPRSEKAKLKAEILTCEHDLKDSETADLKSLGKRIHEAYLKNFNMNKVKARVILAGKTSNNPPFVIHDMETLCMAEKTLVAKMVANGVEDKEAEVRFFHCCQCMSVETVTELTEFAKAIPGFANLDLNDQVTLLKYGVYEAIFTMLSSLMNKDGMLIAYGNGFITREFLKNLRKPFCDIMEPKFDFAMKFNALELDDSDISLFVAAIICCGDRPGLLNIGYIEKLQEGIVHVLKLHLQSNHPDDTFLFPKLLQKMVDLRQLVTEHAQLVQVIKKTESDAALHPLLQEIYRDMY
Briefly: Agonist activity at Gal4-fused mouse PPAR-alpha ligand binding domain expressed in CHO-K1 cells assessed as receptor transactivation incubated for 24 to 48 hrs by luciferase reporter gene assay. The format is cell-based.

For orientation: pEC50 means the negative decadic logarithm of the EC50, by convention in mol/L.

pEC50: −log10 of the molar value.

As to `Cc1cc(CC(=O)O)cc(CN2CCN(c3nc4ccc(C(F)(F)F)cc4s3)[C@@H](C)C2)c1`, the results for the pEC50 in assay [1], in assay [4] and in assay [5] were 8.00, 5.51 and 5.41, respectively. Also, the Emax in assay [2] worked out at 6.3%. For the same molecule, the Ratio EC50 in assay [3] stood at 175.
`Cc1cc(CC(=O)O)cc(CN2CCN(c3nc4ccc(C(F)(F)F)cc4s3)[C@H](C)C2)c1`: the pEC50 in assay [1] is 8.21; in assay [4], 5.92; in assay [5], 5.43. Further, in assay [2], the Emax turned out to be 6.3%. For the same molecule, the Ratio EC50 in assay [3] came to 258.
